Test results published in paper PMC6265484, “Homodimerization regulates an endothelial specific signature of the SOX18 transcription factor” (Nucleic Acids Research, 2018).
pIC50: −log10 of the molar value.

Target: T1, SOX18 (GFP-SOX18 / SOX18-Cherry-myc homodimer) (Homo sapiens, UniProt P35713)
T1 construct: full-length human SOX18, synthetic gene; N-terminal GFP-tagged and C-terminal Cherry-cMyc-tagged copies co-expressed cell-free in Leishmania tarentolae extract, not purified; homodimer
T1 sequence (P35713 1-384): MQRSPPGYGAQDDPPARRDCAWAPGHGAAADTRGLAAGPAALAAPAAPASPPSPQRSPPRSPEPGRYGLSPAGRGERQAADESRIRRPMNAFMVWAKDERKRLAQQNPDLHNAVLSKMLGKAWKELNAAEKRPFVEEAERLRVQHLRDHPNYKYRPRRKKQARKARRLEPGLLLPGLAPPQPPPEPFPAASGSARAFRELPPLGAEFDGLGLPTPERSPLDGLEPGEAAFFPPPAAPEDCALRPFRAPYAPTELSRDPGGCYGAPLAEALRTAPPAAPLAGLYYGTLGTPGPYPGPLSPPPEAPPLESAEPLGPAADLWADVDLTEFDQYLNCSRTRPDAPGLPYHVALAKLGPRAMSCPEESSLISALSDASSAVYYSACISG
Assay: AlphaScreen disruption of SOX18-SOX18 homodimer in cell-free lysate
Type: biochemical
Settings: protein-protein interaction disruption; no IR5 DNA; buffer B (25 mM HEPES, 50 mM NaCl, 0.001% NP40, 0.001% casein); 1 h; 0.7% DMSO

- pIC50: ~5.52
SMILES: O=C(O)c1c(O)cccc1CCc1ccc2ccccc2c1 [Sm4]
